Earlier results, collected in patent US9150734B2, “Zwitterionic lignin derivatives for marine antifouling coatings” (Empire Technology Development LLC, priority 2012, dated 2015).

System: diatom species
Settings: variety of diatom species, various concentrations; variation between species

benzalkonium chloride
concentration at which all diatoms were killed: less than 0.001%
